# Measurements from patent publication US20110200992A1, “Biological Compositions, Articles and Methods for Monitoring Sterilization Processes” (priority 2008, published 2011).
# Legend:
# Format in all cases: cell-based
# [1] = tested on: spores of Gb stearothermophilus; assay: Fluorescence intensity vs. time of spore suspension with dye, with or without nutrients (Example 1); settings: Acridine Orange 6.6 μM, ex 485 nm, em 530 nm, 50° C.; for Fluorescence Intensity of Spore Suspension with Dye: no nutrients
# Method: Spore suspensions of Gb. stearothermophilus (also known as Bacillus stearothermophilus) were prepared by known methods as described in Example 1 of U.S. Pat. No. 5,418,167 ([…] et al.). Modifications of these methods and alternative methods known to those skilled in the art may also be used for preparing these suspensions. Representative cell-permeant dyes from the following classes: green fluorescent nucleic acid stains, red fluorescent nucleic acid stains, and Acridine Orange were tested with spores of Gb stearothermophilus. Specifically, 100 microliters of the spore suspension described above were combined with 200 microlitres of a 1:5000 dilution of the dye with Sterile Water For Irrigation (Baxter, Deerfield, Ill.) or with nutrients glucose, fructose, and potassium chloride in water (1 mg/ml, 1 mg/ml, and 3.3 mgs/ml, respectively), 0.2 M valine, 0.04 M isoleucine, 0.2 M methionine, 4 mg/ml inosine, and 0.4 M alanine. The fluorescence intensity of each of the resulting suspensions was monitored at an incubation temperature of 50° C., using the following dyes at the concentrations and excitation and emission wavelengths indicated below: SYTO 24: 1.0 μM (micromolar); excitation at 485 nm, emission at 530 nm; Acridine Orange: 6.6 μM; excitation at 485 nm, emission at 530 nm; SYTO 64: 1.0 μM; excitation at 530 nm, emission at 620 nm. The dyes are available from Invitrogen, (Carlsbad, Calif.). Fluorescence was monitored in a Biotek FL600 fluorimeter or Biotek Synergy 4 plate reader (Biotek, Winooski, Vt.).
# [2] = tested on: Gb. stearothermophilus spores; assay: Fluorescence with spores after dye medium was exposed to sterilization temperature, autoclaved vs not autoclaved (Example 2); settings: ex 485/em 530 nm, 50° C.
# Method: Dilutions of a Gb. stearothermophilus spore suspension described above were subjected to heat shock treatment at 80° C. for 10 min. The dilutions were prepared using Sterile Water For Irrigation (Baxter, Deerfield, Ill.) and tested at a final population of 1×10^6 and 0 spores. The spore dilutions (100 microlitres) were combined with 200 microlitres of medium, consisting of Acridine Orange and nutrients as described in Example 1, that had been subjected to a 15 min 121° C. (250° F.) vacuum assisted cycle in a AMSCO Scientific SG-120 Eagle/Century Series steam sterilizer (Steris, Mentor Ohio), and each of the resulting mixtures was added to a well of a plate. Un-autoclaved medium was used as a control. […] The experiment was performed with both heat shocked and non-heat shocked spores. A summary of the normalized data is listed below in Tables 2a-2c.
# [3] = tested on: Gb. stearothermophilus spores; assay: Fluorescence with live and dead (sterilized) spores, dye and nutrient medium treated with the same sterilizing conditions (Example 3)
# Method: A glass vial containing 1 mL of 1×E7 Gb. stearothermophilus spore suspension described above and a glass vial containing 1 mL of medium containing a cell-permeant fluorescent dye as described in Example 1 were placed in a sterilizer and run in a 15 min 121° C. (250° F.) vacuum assisted cycle in a AMSCO Scientific SG-120 Eagle/Century Series steam sterilizer (Steris, Mentor Ohio), and 100 microlitres of the resulting autoclaved spore suspensions and medium were subsequently tested. Un-autoclaved spore suspensions that were subjected to a heat shock treatment at 80° C. for 10 min were tested simultaneously as a control. Spore suspensions (100 microlitres) were combined with 200 microlitres of medium, consisting of Acridine orange dye and nutrients as described in Example 1, that was run through the same steam sterilization cycle as the spores, and each resulting mixture was added to a well of a plate. The plate was subsequently placed in a preheated plate reader (Synergy 4, BioTek, Winooski, Vt.) at 50° C. and incubated for 180 min, during which fluorescence intensity readings using excitation and emission wavelengths of 520 and 580, respectively were taken for at total of 19 readings.
compound,measurement,setting,value
CN(C)c1ccc2cc3ccc(N(C)C)cc3nc2c1 [Acridine Orange],Fluorescence Intensity of Spore Suspension with Dye,[1]; 0 min,2005
same,Fluorescence Intensity of Spore Suspension with Dye,[1]; 10 min,2665
same,Fluorescence Intensity of Spore Suspension with Dye,[1]; 20 min,4069
same,Fluorescence Intensity of Spore Suspension with Dye,[1]; 30 min,5655
same,Fluorescence Intensity of Spore Suspension with Dye,[1]; 40 min,7091
same,Fluorescence Intensity of Spore Suspension with Dye and Nutrients,[1]; 0 min,2687
same,Fluorescence Intensity of Spore Suspension with Dye and Nutrients,[1]; 10 min,2777
same,Fluorescence Intensity of Spore Suspension with Dye and Nutrients,[1]; 20 min,4241
same,Fluorescence Intensity of Spore Suspension with Dye and Nutrients,[1]; 30 min,7842
same,Fluorescence Intensity of Spore Suspension with Dye and Nutrients,[1]; 40 min,11708
same,Fluorescence intensity (normalized),"[2]; Autoclaved (15 min 121° C.) dye + nutrient medium, heat shocked E6 germinating spores, 0 min",0
same,Fluorescence intensity (normalized),"[2]; Autoclaved (15 min 121° C.) dye + nutrient medium, heat shocked E6 germinating spores, 30 min",6211.5
same,Fluorescence intensity (normalized),"[2]; Autoclaved (15 min 121° C.) dye + nutrient medium, heat shocked E6 germinating spores, 60 min",8652.5
same,Fluorescence intensity (normalized),"[2]; Autoclaved (15 min 121° C.) dye + nutrient medium, heat shocked E6 germinating spores, 90 min",9955.5
same,Fluorescence intensity (normalized),"[2]; Autoclaved (15 min 121° C.) dye + nutrient medium, heat shocked E6 germinating spores, 120 min",10376.5
same,Fluorescence intensity (normalized),"[2]; Autoclaved (15 min 121° C.) dye + nutrient medium, heat shocked E6 germinating spores, 150 min",10694.25
same,Fluorescence intensity (normalized),"[2]; Autoclaved (15 min 121° C.) dye + nutrient medium, heat shocked E6 germinating spores, 180 min",10803
same,Fluorescence intensity (normalized),"[2]; Autoclaved (15 min 121° C.) dye + nutrient medium, heat shocked, 0 spores, 0 min",0
same,Fluorescence intensity (normalized),"[2]; Autoclaved (15 min 121° C.) dye + nutrient medium, heat shocked, 0 spores, 30 min",522.25
same,Fluorescence intensity (normalized),"[2]; Autoclaved (15 min 121° C.) dye + nutrient medium, heat shocked, 0 spores, 60 min",588.75
same,Fluorescence intensity (normalized),"[2]; Autoclaved (15 min 121° C.) dye + nutrient medium, heat shocked, 0 spores, 90 min",779.75
same,Fluorescence intensity (normalized),"[2]; Autoclaved (15 min 121° C.) dye + nutrient medium, heat shocked, 0 spores, 120 min",870
same,Fluorescence intensity (normalized),"[2]; Autoclaved (15 min 121° C.) dye + nutrient medium, heat shocked, 0 spores, 150 min",886.5
same,Fluorescence intensity (normalized),"[2]; Autoclaved (15 min 121° C.) dye + nutrient medium, heat shocked, 0 spores, 180 min",960.5
same,Fluorescence intensity (normalized),"[2]; Autoclaved (15 min 121° C.) dye + nutrient medium, non-heat shocked E6 germinating spores, 0 min",0
same,Fluorescence intensity (normalized),"[2]; Autoclaved (15 min 121° C.) dye + nutrient medium, non-heat shocked E6 germinating spores, 14 min",609
same,Fluorescence intensity (normalized),"[2]; Autoclaved (15 min 121° C.) dye + nutrient medium, non-heat shocked E6 germinating spores, 30 min",2599
same,Fluorescence intensity (normalized),"[2]; Autoclaved (15 min 121° C.) dye + nutrient medium, non-heat shocked E6 germinating spores, 44 min",4753
same,Fluorescence intensity (normalized),"[2]; Autoclaved (15 min 121° C.) dye + nutrient medium, non-heat shocked E6 germinating spores, 58 min",6508
same,Fluorescence intensity (normalized),"[2]; Autoclaved (15 min 121° C.) dye + nutrient medium, non-heat shocked, 0 spores, 0 min",0
same,Fluorescence intensity (normalized),"[2]; Autoclaved (15 min 121° C.) dye + nutrient medium, non-heat shocked, 0 spores, 14 min",−212
same,Fluorescence intensity (normalized),"[2]; Autoclaved (15 min 121° C.) dye + nutrient medium, non-heat shocked, 0 spores, 30 min",−263
same,Fluorescence intensity (normalized),"[2]; Autoclaved (15 min 121° C.) dye + nutrient medium, non-heat shocked, 0 spores, 44 min",−278
same,Fluorescence intensity (normalized),"[2]; Autoclaved (15 min 121° C.) dye + nutrient medium, non-heat shocked, 0 spores, 58 min",−287
same,Fluorescence intensity (normalized),"[2]; Not autoclaved dye + nutrient medium, heat shocked E6 germinating spores, 0 min",0
same,Fluorescence intensity (normalized),"[2]; Not autoclaved dye + nutrient medium, heat shocked E6 germinating spores, 30 min",11623.75
same,Fluorescence intensity (normalized),"[2]; Not autoclaved dye + nutrient medium, heat shocked E6 germinating spores, 60 min",17121.25
same,Fluorescence intensity (normalized),"[2]; Not autoclaved dye + nutrient medium, heat shocked E6 germinating spores, 90 min",18928.25
same,Fluorescence intensity (normalized),"[2]; Not autoclaved dye + nutrient medium, heat shocked E6 germinating spores, 120 min",19653.75
same,Fluorescence intensity (normalized),"[2]; Not autoclaved dye + nutrient medium, heat shocked E6 germinating spores, 150 min",19884.5
same,Fluorescence intensity (normalized),"[2]; Not autoclaved dye + nutrient medium, heat shocked E6 germinating spores, 180 min",20008.25
same,Fluorescence intensity (normalized),"[2]; Not autoclaved dye + nutrient medium, heat shocked, 0 spores, 0 min",0
same,Fluorescence intensity (normalized),"[2]; Not autoclaved dye + nutrient medium, heat shocked, 0 spores, 30 min",813
same,Fluorescence intensity (normalized),"[2]; Not autoclaved dye + nutrient medium, heat shocked, 0 spores, 60 min",875.75
same,Fluorescence intensity (normalized),"[2]; Not autoclaved dye + nutrient medium, heat shocked, 0 spores, 90 min",996.25
same,Fluorescence intensity (normalized),"[2]; Not autoclaved dye + nutrient medium, heat shocked, 0 spores, 120 min",1099
same,Fluorescence intensity (normalized),"[2]; Not autoclaved dye + nutrient medium, heat shocked, 0 spores, 150 min",1114.5
same,Fluorescence intensity (normalized),"[2]; Not autoclaved dye + nutrient medium, heat shocked, 0 spores, 180 min",990.25
same,Fluorescence intensity (normalized),"[2]; Not autoclaved dye + nutrient medium, non-heat shocked E6 germinating spores, 0 min",00
same,Fluorescence intensity (normalized),"[2]; Not autoclaved dye + nutrient medium, non-heat shocked E6 germinating spores, 14 min",597
same,Fluorescence intensity (normalized),"[2]; Not autoclaved dye + nutrient medium, non-heat shocked E6 germinating spores, 30 min",2878
same,Fluorescence intensity (normalized),"[2]; Not autoclaved dye + nutrient medium, non-heat shocked E6 germinating spores, 44 min",5314
same,Fluorescence intensity (normalized),"[2]; Not autoclaved dye + nutrient medium, non-heat shocked E6 germinating spores, 58 min",7289
same,Fluorescence intensity (normalized),"[2]; Not autoclaved dye + nutrient medium, non-heat shocked, 0 spores, 0 min",0
same,Fluorescence intensity (normalized),"[2]; Not autoclaved dye + nutrient medium, non-heat shocked, 0 spores, 14 min",−334
same,Fluorescence intensity (normalized),"[2]; Not autoclaved dye + nutrient medium, non-heat shocked, 0 spores, 30 min",−456
same,Fluorescence intensity (normalized),"[2]; Not autoclaved dye + nutrient medium, non-heat shocked, 0 spores, 44 min",−484
same,Fluorescence intensity (normalized),"[2]; Not autoclaved dye + nutrient medium, non-heat shocked, 0 spores, 58 min",−476
same,Fluorescence intensity (normalized),"[3]; Autoclaved (dead) Spores, E6, ex 520/em 580, 50° C., 0 min",0
same,Fluorescence intensity (normalized),"[3]; Autoclaved (dead) Spores, E6, ex 520/em 580, 50° C., 30 min",−1468.25
same,Fluorescence intensity (normalized),"[3]; Autoclaved (dead) Spores, E6, ex 520/em 580, 50° C., 60 min",−103.5
same,Fluorescence intensity (normalized),"[3]; Autoclaved (dead) Spores, E6, ex 520/em 580, 50° C., 90 min",−9.25
same,Fluorescence intensity (normalized),"[3]; Autoclaved (dead) Spores, E6, ex 520/em 580, 50° C., 120 min",−49.25
same,Fluorescence intensity (normalized),"[3]; Autoclaved (dead) Spores, E6, ex 520/em 580, 50° C., 180 min",−307
same,Fluorescence intensity (normalized),"[3]; Autoclaved Spores, 0, ex 520/em 580, 50° C., 0 min",0
same,Fluorescence intensity (normalized),"[3]; Autoclaved Spores, 0, ex 520/em 580, 50° C., 30 min",375.25
same,Fluorescence intensity (normalized),"[3]; Autoclaved Spores, 0, ex 520/em 580, 50° C., 60 min",1347.25
same,Fluorescence intensity (normalized),"[3]; Autoclaved Spores, 0, ex 520/em 580, 50° C., 90 min",1533.75
same,Fluorescence intensity (normalized),"[3]; Autoclaved Spores, 0, ex 520/em 580, 50° C., 120 min",1491.25
same,Fluorescence intensity (normalized),"[3]; Autoclaved Spores, 0, ex 520/em 580, 50° C., 180 min",1427.75
same,Fluorescence intensity (normalized),"[3]; Live Spores (heat shocked), E6, autoclaved dye + nutrient medium, ex 520/em 580, 50° C., 0 min",0
same,Fluorescence intensity (normalized),"[3]; Live Spores (heat shocked), E6, autoclaved dye + nutrient medium, ex 520/em 580, 50° C., 30 min",6211.5
same,Fluorescence intensity (normalized),"[3]; Live Spores (heat shocked), E6, autoclaved dye + nutrient medium, ex 520/em 580, 50° C., 60 min",8652.5
same,Fluorescence intensity (normalized),"[3]; Live Spores (heat shocked), E6, autoclaved dye + nutrient medium, ex 520/em 580, 50° C., 90 min",9955.5
same,Fluorescence intensity (normalized),"[3]; Live Spores (heat shocked), E6, autoclaved dye + nutrient medium, ex 520/em 580, 50° C., 120 min",10376.5
same,Fluorescence intensity (normalized),"[3]; Live Spores (heat shocked), E6, autoclaved dye + nutrient medium, ex 520/em 580, 50° C., 180 min",10694.25
same,Fluorescence intensity (normalized),"[3]; Live Spores, 0, autoclaved dye + nutrient medium, ex 520/em 580, 50° C., 0 min",0
same,Fluorescence intensity (normalized),"[3]; Live Spores, 0, autoclaved dye + nutrient medium, ex 520/em 580, 50° C., 30 min",522.25
same,Fluorescence intensity (normalized),"[3]; Live Spores, 0, autoclaved dye + nutrient medium, ex 520/em 580, 50° C., 60 min",588.75
same,Fluorescence intensity (normalized),"[3]; Live Spores, 0, autoclaved dye + nutrient medium, ex 520/em 580, 50° C., 90 min",779.75
same,Fluorescence intensity (normalized),"[3]; Live Spores, 0, autoclaved dye + nutrient medium, ex 520/em 580, 50° C., 120 min",870
same,Fluorescence intensity (normalized),"[3]; Live Spores, 0, autoclaved dye + nutrient medium, ex 520/em 580, 50° C., 180 min",886.5
